Measurements as given in patent publication US9708286B2, “Ingenol-3-acylates III and ingenol-3-carbamates” (LEO Laboratories Limited, priority 2010, dated 2017).

Experiments:
Format in all cases: cell-based
[1] = tested on: PMN's (polymorphonuclear leukocytes); assay: Neutrophil oxidative burst; conditions: Leukocyte, 40 min, read-out: Neutrophil oxidative burst Rel EC50 range, PMN from buffy coats, 40 min at RT, hydroethidine fluorescence; normalized to 5×10^−7 M PEP0005
How it was run: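 Human buffy-coat neutrophils (2.5×10^5/well) in HBSS with 0.1% BSA, 5 mM glucose treated with compound premixed with 10 μM hydroethidine for 40 min at RT; fluorescence read at 485/579 nm. Normalized to 5×10^−7 M PEP0005; Rel EC50 is midway between fitted top and bottom, Abs EC50 gives 50% of PEP0005 maximum.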

[2] = tested on: Primary human epidermal keratinocytes, HeKa; assay: HeKa cytokine release (IL-8); conditions: Homo sapiens, HEKa, 6 h, read-out: HeKa cytokine release (IL-8) Rel EC50 range
Protocol: Primary human epidermal keratinocytes, HeKa, were seeded (10.000 cells/well) in 96-well plates the day before the assay. Test compounds were diluted in DMSO (dimethyl sulfoxide) and further diluted in assay medium and pipetted into wells of 96 well-plates containing HeKa cells. The plates were incubated for 6 h at 37° C. in humidified air with 5% CO2. Plates were centrifuged briefly to spin down cells at 4° C., the supernatant was removed and analysed by Meso Scale Discovery (MSD) 4-spot cytokine assay (Pro-inflammatory II Ultra Sensitive kit, MSD, MD, USA). The MSD assay employs a sandwich immunoassay format where capture antibodies are coated in a patterned array on the bottom of the wells of a 4-Spot-Multi-MSD plate. Standard samples were incubated in the MULTI-SPOT plates as well, and the cytokine (IL-8) binds to its corresponding capture antibody spot. The cytokine level was quantitated on a SECTOR™ Imager using a cytokine-specific Detection Antibody labelled with MSD SULFO-TAG™ reagent.
Test compound titration curves were fitted to a four-parameter sigmoidal curve after normalizing the effect of the test compound to the effect of the positive control (1.5×10^−7 M PEP0005). Rel EC50 denotes the concentration of test compound producing an effect that is midway between the fitted top and bottom.

[3] = tested on: HeLa cells; assay: Necrosis assay; conditions: Homo sapiens, HeLa, 0.5 h, read-out: HeLa necrosis EC50 range
How it was run: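 HeLa cells treated with compound at 10 μM to 400 μM (final) for 30 min at 37° C., viability then measured by PrestoBlue fluorescence (ex 535/em 630 nm). Normalized to 1% DMSO and 400 μM ingenol mebutate controls; AbsEC50 from four-parameter sigmoidal fit.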

| SMILES | EC50 [1] [nM] | EC50 [2] [nM] | EC50 [3] [nM] |
| --- | --- | --- | --- |
| CC1=C[C@]23C(=O)[C@@H](C=C(CO)[C@@H](O)[C@]2(O)[C@H]1OC(=O)c1cccc2cc[nH]c12)[C@H]1[C@@H](C[C@H]3C)C1(C)C [Compound 531, Ingenol 3-(1H-indole-7-carboxylate)] | 20 to 100 | < 20 | < 150000 |
| CC1=C[C@]23C(=O)[C@@H](C=C(CO)[C@@H](O)[C@]2(O)[C@H]1OC(=O)c1cc(C)nn1C(C)(C)C)[C@H]1[C@@H](C[C@H]3C)C1(C)C [Compound 532, Ingenol 3-(2-tert-butyl-5-methyl-pyrazole-3-carboxylate)] | 20 to 100 | < 20 | < 150000 |
| CC1=C[C@]23C(=O)[C@@H](C=C(CO)[C@@H](O)[C@]2(O)[C@H]1OC(=O)c1cc(C(C)(C)C)nn1C)[C@H]1[C@@H](C[C@H]3C)C1(C)C [Compound 533, Ingenol 3-(5-tert-butyl-2-methyl-pyrazole-3-carboxylate)] | < 20 | < 20 | < 150000 |
| CC1=C[C@]23C(=O)[C@@H](C=C(CO)[C@@H](O)[C@]2(O)[C@H]1OC(=O)c1c(C)nc2sccn12)[C@H]1[C@@H](C[C@H]3C)C1(C)C [Compound 534, Ingenol 3-(6-methylimidazo[2,1-b]thiazole-5-carboxylate)] | < 20 | < 20 | 150000 to 350000 |
| CC1=C[C@]23C(=O)[C@@H](C=C(CO)[C@@H](O)[C@]2(O)[C@H]1OC(=O)c1c(C)oc(C)c1C)[C@H]1[C@@H](C[C@H]3C)C1(C)C [Compound 536, Ingenol 3-(2,4,5-trimethylfuran-3-carboxylate)] | < 20 | < 20 | 150000 to 350000 |
| CC1=C[C@]23C(=O)[C@@H](C=C(CO)[C@@H](O)[C@]2(O)[C@H]1OC(=O)c1sccc1C)[C@H]1[C@@H](C[C@H]3C)C1(C)C [Compound 537, Ingenol 3-(3-methylthiophene-2-carboxylate)] | < 20 | < 20 | 150000 to 350000 |
| CC1=C[C@]23C(=O)[C@@H](C=C(CO)[C@@H](O)[C@]2(O)[C@H]1OC(=O)c1c(N2CCCCC2)cnn1C)[C@H]1[C@@H](C[C@H]3C)C1(C)C [Compound 538, Ingenol 3-(2-methyl-4-(1-piperidyl)pyrazole-3-carboxylate)] | < 20 | 20 to 100 | 150000 to 350000 |
| CC1=C[C@]23C(=O)[C@@H](C=C(CO)[C@@H](O)[C@]2(O)[C@H]1OC(=O)c1nc(Cl)sc1C(C)C)[C@H]1[C@@H](C[C@H]3C)C1(C)C [Compound 539, Ingenol 3-(2-chloro-5-isopropyl-thiazole-4-carboxylate)] | 20 to 100 | < 20 | < 150000 |
| CC1=C[C@]23C(=O)[C@@H](C=C(CO)[C@@H](O)[C@]2(O)[C@H]1OC(=O)c1c(Cl)c(C)nn1C)[C@H]1[C@@H](C[C@H]3C)C1(C)C [Compound 540, Ingenol 3-(4-chloro-2,5-dimethyl-pyrazole-3-carboxylate)] | < 20 | < 20 | < 150000 |
| CC1=C[C@]23C(=O)[C@@H](C=C(CO)[C@@H](O)[C@]2(O)[C@H]1OC(=O)c1c(C)cn(C)c1C)[C@H]1[C@@H](C[C@H]3C)C1(C)C [Compound 541, Ingenol 3-(1,2,4-trimethylpyrrole-3-carboxylate)] | < 20 | < 20 | 150000 to 350000 |
| CC1=C[C@]23C(=O)[C@@H](C=C(CO)[C@@H](O)[C@]2(O)[C@H]1OC(=O)c1c(C)cc(C)n1C)[C@H]1[C@@H](C[C@H]3C)C1(C)C [Compound 542, Ingenol 3-(1,3,5-trimethylpyrrole-2-carboxylate)] | < 20 | < 20 | < 150000 |
| CC1=C[C@]23C(=O)[C@@H](C=C(CO)[C@@H](O)[C@]2(O)[C@H]1OC(=O)C1N(C(=O)OC(C)(C)C)CCC1(C)C)[C@H]1[C@@H](C[C@H]3C)C1(C)C (stereo partly drawn) [Compound 544, Ingenol 3-(1-tert-butyloxycarbonyl-3,3-dimethylpyrrolidine-2-carboxylate)] | > 100 | > 100 | 150000 to 350000 |
| CC1=C[C@]23C(=O)[C@@H](C=C(CO)[C@@H](O)[C@]2(O)[C@H]1OC(=O)c1c(C)nn(C(C)C)c1C)[C@H]1[C@@H](C[C@H]3C)C1(C)C [Compound 546, Ingenol 3-(1-isopropyl-3,5-dimethyl-pyrazole-4-carboxylate)] | < 20 | < 20 | 150000 to 350000 |
| CCc1onc(C(C)C)c1C(=O)O[C@H]1C(C)=C[C@]23C(=O)[C@@H](C=C(CO)[C@@H](O)[C@]12O)[C@H]1[C@@H](C[C@H]3C)C1(C)C [Compound 547, Ingenol 3-(5-ethyl-3-isopropyl-isoxazole-4-carboxylate)] | 20 to 100 | < 20 | < 150000 |
| CC1=C[C@]23C(=O)[C@@H](C=C(CO)[C@@H](O)[C@]2(O)[C@H]1OC(=O)c1c2ccccc2nn1C)[C@H]1[C@@H](C[C@H]3C)C1(C)C [Compound 548, Ingenol 3-(2-methylindazole-3-carboxylate)] | 20 to 100 | < 20 | 150000 to 350000 |
| CC1=C[C@]23C(=O)[C@@H](C=C(CO)[C@@H](O)[C@]2(O)[C@H]1OC(=O)C1=C(C)C(=O)OC12CCCCC2)[C@H]1[C@@H](C[C@H]3C)C1(C)C [Compound 550, Ingenol 3-(2-methyl-3-oxo-4-oxaspiro[4.5]dec-1-ene-1-carboxylate)] | < 20 | < 20 | < 150000 |
| CC1=C[C@]23C(=O)[C@@H](C=C(CO)[C@@H](O)[C@]2(O)[C@H]1OC(=O)c1c(C)nsc1C)[C@H]1[C@@H](C[C@H]3C)C1(C)C [Compound 552, Ingenol 3-(3,5-dimethylisothiazole-4-carboxylate)] | 20 to 100 | 20 to 100 | 150000 to 350000 |
| CC1=C[C@]23C(=O)[C@@H](C=C(CO)[C@@H](O)[C@]2(O)[C@H]1OC(=O)c1c(C)nsc1I)[C@H]1[C@@H](C[C@H]3C)C1(C)C [Compound 553, Ingenol 3-(5-iodo-3-methyl-isothiazole-4-carboxylate)] | < 20 | < 20 | 150000 to 350000 |
| COc1ccc(-c2cnn(C)c2C(=O)O[C@H]2C(C)=C[C@]34C(=O)[C@@H](C=C(CO)[C@@H](O)[C@]23O)[C@H]2[C@@H](C[C@H]4C)C2(C)C)cc1 [Compound 554, Ingenol 3-(4-(4-methoxyphenyl)-2-methyl-pyrazole-3-carboxylate)] | < 20 | < 20 | < 150000 |
| CC1=C[C@]23C(=O)[C@@H](C=C(CO)[C@@H](O)[C@]2(O)[C@H]1OC(=O)c1c(-c2ccccc2C)cnn1C)[C@H]1[C@@H](C[C@H]3C)C1(C)C [Compound 555, Ingenol 3-(4-(2-methylphenyl)-2-methyl-pyrazole-3-carboxylate)] | < 20 | < 20 | < 150000 |
